Experimental data taken from the supplement of paper PMC10307832.

Legend:
Assay in all cases: relative viability (nuclei count vs DMSO), 5 days (fraction); higher = more cells survive
[1] = compound: O[C@H]1CC[C@H](Nc2ncc3nc(Nc4c(F)cc(F)cc4F)n([C@H]4CCOC4)c3n2)CC1 [Tanzisertib] + CC(=O)c1c(C)c2cnc(Nc3ccc(N4CCNCC4)cn3)nc2n(C2CCCC2)c1=O [Palbociclib] (partner 0.5 µM)
Outline: (§1)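 The day after seeding in 1536-well plates, lung cancer cell lines were treated by pin tool with a single drug, or with a fixed anchor-drug dose together with five library-drug doses (not always all listed) in √10 steps. After 5 days, a combined fix-and-stain solution (final 0.05% Triton X-100, 1% formaldehyde, 1 ug/ml Hoechst) was added. Nuclei counted on 4× images gave relative viability as treated counts over vehicle counts, reported as the median of duplicate plates.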

Tanzisertib + Pemetrexed = compound: O[C@H]1CC[C@H](Nc2ncc3nc(Nc4c(F)cc(F)cc4F)n([C@H]4CCOC4)c3n2)CC1 [Tanzisertib] + Nc1nc2[nH]cc(CCc3ccc(C(=O)N[C@@H](CCC(=O)O)C(=O)O)cc3)c2c(=O)[nH]1 [Pemetrexed] (partner 0.2 µM)
Outline: as §1

[2] = compound: C[C@@H](N)c1ccc(C(=O)Nc2ccnc3[nH]ccc23)cc1 + C[C@]1(O)C[C@@H](c2nc(-c3ccc4ccc(-c5ccccc5)nc4c3)c3c(N)nccn32)C1 [Linsitinib] (partner 1 µM)
Outline: as §1

[3] = compound: C[C@@H](N)c1ccc(C(=O)Nc2ccnc3[nH]ccc23)cc1 + CS(=O)(=O)N1CCN(Cc2cc3nc(-c4cccc5[nH]ncc45)nc(N4CCOCC4)c3s2)CC1 [Pictilisib] (partner 1 µM)
Outline: as §1

Row | Cell Line | relative viability ([1]; first compound 0.08 µM) | relative viability ([1]; first compound 0.253 µM) | relative viability ([1]; first compound 0.8 µM) | relative viability ([1]; first compound 2.53 µM) | relative viability ([1]; first compound 8 µM) | relative viability (Tanzisertib + Pemetrexed; first compound 0.08 µM) | relative viability (Tanzisertib + Pemetrexed; first compound 0.253 µM) | relative viability (Tanzisertib + Pemetrexed; first compound 0.8 µM) | relative viability (Tanzisertib + Pemetrexed; first compound 2.53 µM) | relative viability (Tanzisertib + Pemetrexed; first compound 8 µM) | relative viability ([2]; first compound 0.04 µM) | relative viability ([2]; first compound 0.1265 µM) | relative viability ([2]; first compound 0.4 µM) | relative viability ([2]; first compound 1.265 µM) | relative viability ([2]; first compound 4 µM) | relative viability ([3]; first compound 0.04 µM) | relative viability ([3]; first compound 0.1265 µM) | relative viability ([3]; first compound 0.4 µM) | relative viability ([3]; first compound 1.265 µM) | relative viability ([3]; first compound 4 µM)
1 | NCI-H1666 | 0.675 | 0.729 | 0.65 | 0.688 | 0.639 | 0.894 | 0.789 | 0.865 | 0.941 | 0.796 | 0.849 | 1.04 | 1.01 | 1.12 | 0.966 | 0.527 | 0.407 | 0.498 | 0.476 | 0.728
2 | NCI-H1944 | 0.322 | 0.343 | 0.324 | 0.339 | 0.295 | 0.733 | 0.589 | 0.686 | 0.678 | 0.554 | 1.28 | 1.16 | 1.17 |  | 0.835 | 0.398 | 0.339 | 0.337 |  | 0.345
3 | NCI-H2023 | 0.335 | 0.406 | 0.406 | 0.325 | 0.328 | 0.287 | 0.222 | 0.215 | 0.202 | 0.205 | 0.734 | 0.691 | 0.724 | 0.798 | 0.663 | 0.283 | 0.26 | 0.403 | 0.139 | 0.301
4 | NCI-H1755 | 0.434 | 0.453 | 0.433 | 0.44 | 0.439 | 0.368 | 0.451 | 0.565 | 0.408 | 0.404 | 1.03 | 0.977 | 0.947 | 0.86 | 0.716 | 0.418 | 0.487 | 0.517 | 0.382 | 0.364
5 | NCI-H23 | 0.479 | 0.53 | 0.512 | 0.493 | 0.514 | 0.785 | 0.761 | 0.682 | 0.681 | 0.584 | 0.665 | 0.641 | 0.779 |  | 0.519 | 0.605 | 0.536 | 0.487 |  | 0.557
6 | 201T | 0.369 | 0.375 | 0.35 | 0.342 | 0.334 | 0.321 | 0.322 | 0.325 | 0.314 | 0.298 | 1.14 | 1.02 | 1.07 | 1.11 | 1.16 | 0.702 | 0.636 | 0.685 | 0.519 | 0.788
7 | NCI-H1734 | 0.361 | 0.335 | 0.321 | 0.343 | 0.354 | 0.428 | 0.423 | 0.408 | 0.403 | 0.402 | 0.901 | 0.905 | 0.805 |  | 0.708 | 0.475 | 0.474 | 0.461 |  | 0.353
8 | NCI-H520 | 0.274 | 0.201 | 0.227 | 0.227 | 0.239 | 0.589 | 0.714 | 0.67 | 0.561 | 0.642 | 0.97 | 1.07 | 1.05 | 1.26 | 1.02 | 0.33 | 0.301 | 0.29 | 0.396 | 0.504
9 | NCI-H1355 | 0.435 | 0.398 | 0.4 | 0.438 | 0.382 | 1.07 | 1.06 | 1.05 | 1.07 | 1.03 | 0.853 | 0.723 | 0.833 |  | 0.771 | 0.338 | 0.429 | 0.555 |  | 0.351
10 | NCI-H1915 | 0.58 | 0.514 | 0.55 | 0.506 | 0.476 | 0.565 | 0.451 | 0.486 | 0.501 | 0.49 | 1.1 | 1.13 | 1.12 |  | 1.03 | 1.15 | 0.92 | 0.925 |  | 0.837
11 | BEN | 0.448 | 0.532 | 0.502 | 0.492 | 0.509 | 0.755 | 0.923 | 1 | 0.909 | 0.605 | 0.981 | 0.86 | 0.991 | 1.02 | 0.636 | 0.537 | 0.454 | 0.611 | 0.617 | 0.44
12 | NCI-H3122 | 0.23 | 0.187 | 0.213 | 0.159 | 0.206 | 0.2 | 0.192 | 0.193 | 0.19 | 0.188 | 1.03 | 0.985 | 0.964 | 1.02 | 1.03 | 0.72 | 0.721 | 0.716 | 0.687 | 0.728
13 | SK-MES-1 | 0.327 | 0.314 | 0.345 | 0.298 | 0.281 | 0.971 | 0.887 | 0.962 | 0.982 | 0.737 | 1.06 | 0.996 | 0.976 | 0.768 | 0.815 | 0.375 | 0.39 | 0.359 | 0.395 | 0.404
14 | HOP-62 | 0.411 | 0.451 | 0.464 | 0.491 | 0.525 | 0.301 | 0.346 | 0.31 | 0.315 | 0.353 | 0.972 | 0.983 | 0.88 | 1.03 | 0.954 | 0.539 | 0.413 | 0.827 | 0.0717 | 0.887
15 | HCC-366 |  | 0.395 | 0.424 | 0.368 | 0.384 |  | 0.201 | 0.152 | 0.204 | 0.328 | 0.615 | 0.63 | 0.785 |  | 0.49 | 0.113 | 0.137 | 0.163 | 0.132 | 0.0875
